Patent US6479487B1, “6, 9-disubstituted 2-[trans-(4-aminocyclohexyl)amino] purines” (Aventis Pharmaceuticals Inc., priority 1998, dated 2002)
Where “and” joins values, the source holds several entries; their conditions need not be identical. Equal entries are not always repeated. Structures can show the parent of a compound that is named as a salt. Where two headings read alike, the source gives them in different places.

Legend:
[1] = tested on: Colo-205; assay: In vitro tumor cell proliferation, Colo-205; type: cell-based; conditions: values given with an undefined *, read-out: In vitro Tumor Cell Proliferation (IC50, μM) Colon Colo-205
Protocol: (§1) The proliferation of tumor cells was measured using a sulforhodamine B assay as described in Skehan, P., et al., J. Natl. Cancer Inst. […] Tumor cells were harvested with trypsin-EDTA, cells that excluded trypan blue were counted, added to 96-well plates and incubated overnight at 37° C. Drug was added to the wells following dilution in culture medium. Three days later, the medium was removed and replenished with medium containing fresh drug and incubated an additional 4 days. The cells were then fixed with 0.1 ml 10% trichloroacetic acid for 60 min at 4° C. The plates were rinsed five times with tap water, air-dried and stained for 30 min with 0.4% sulforhodamine B in 1% acetic acid and air-dried.
(§2) Alternatively, the CyQUANT cell proliferation assay was used to quantitate cell proliferation.
(§3) Alternatively, the CyQUANT cell proliferation assay was used to quantify tumor cell proliferation. Tumor cells were harvested with trypsin-EDTA, cells that excluded trypan blue were counted, added to 96-well plates and incubated overnight at 37° C. Drug was added to the wells following dilution in culture medium. Three days later the medium was removed and the plates frozen at −80° C. for at least 30 minutes.

[2] = tested on: DMS-114; assay: In vitro tumor cell proliferation, DMS-114; type: cell-based, human; conditions: many values given with an undefined *, read-out: In vitro Tumor Cell Proliferation (IC50, μM) Lung DMS-114
Protocol: DMS-1 14: human small cell lung carcinoma;
as §1, §2, §3

[3] = tested on: HT-29; assay: In vitro tumor cell proliferation, HT-29; type: cell-based, human; conditions: many values given with an undefined *, read-out: In vitro Tumor Cell Proliferation (IC50, μM) Colon HT-29
Protocol: as §1, §2, §3
HT-29 is a human colon adenocarcinoma, moderately well-differentiated grade II (HTB 38);

[4] = tested on: PC-3; assay: In vitro tumor cell proliferation, PC-3; type: cell-based, human; conditions: many values given with an undefined *, read-out: In vitro Tumor Cell Proliferation (IC50, μM) Prostate PC-3
Protocol: as §1, §2, §3

[5] = target: T1, cdk4/cyclin D1 (Homo sapiens, UniProt P11802); assay: Cyclin-dependent Kinase 4 Assay (cdk4/cyclin D1, GST-Rb substrate); type: biochemical; conditions: cdk4/cyclin D1 insect cell lysate, 10 μM ATP, 30 min at 37° C., several values = separate determinations, read-out: CDK4 Inhibition IC50
T1 construct: made in house; host or cells: Sf9 insect cells (Bac-to-Bac baculovirus, pFastBac)
T1 sequence (P11802 whole entry): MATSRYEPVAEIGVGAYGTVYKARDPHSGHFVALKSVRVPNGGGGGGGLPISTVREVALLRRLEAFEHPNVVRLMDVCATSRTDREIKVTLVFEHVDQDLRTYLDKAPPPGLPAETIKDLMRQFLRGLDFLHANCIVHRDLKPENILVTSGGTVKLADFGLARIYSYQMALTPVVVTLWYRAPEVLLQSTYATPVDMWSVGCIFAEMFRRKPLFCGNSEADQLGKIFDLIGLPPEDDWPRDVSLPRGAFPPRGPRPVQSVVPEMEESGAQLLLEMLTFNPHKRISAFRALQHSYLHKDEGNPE
T1 sequence (P24385 whole entry partner): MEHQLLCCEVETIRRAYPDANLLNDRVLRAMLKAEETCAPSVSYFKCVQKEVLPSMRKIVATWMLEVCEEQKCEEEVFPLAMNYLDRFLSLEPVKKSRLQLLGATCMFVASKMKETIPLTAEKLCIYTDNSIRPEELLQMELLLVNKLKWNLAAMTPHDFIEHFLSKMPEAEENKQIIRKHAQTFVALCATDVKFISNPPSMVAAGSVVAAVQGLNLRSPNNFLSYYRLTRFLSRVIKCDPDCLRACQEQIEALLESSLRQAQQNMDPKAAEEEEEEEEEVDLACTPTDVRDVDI
Protocol: The IC50 values for cdk4 inhibition were by the following method:
The transformed bacteria were grown overnight to saturation, then diluted in YT broth and incubated at 37° C. for 2 h. The protein was induced by incubation with 0.1 mM isopropylthioglycoside for 3 h. Following sedimentation by centrifugation, the cells were lysed by sonication in STE buffer ([…] NaCl, 10 mM Tris, pH 8.0, 1 mM EDTA) containing 10% sarkosyl. Particulate matter was removed by centrifugation and the lysate was incubated with glutathione-Sepharose at 4° C. The beads were washed with kinase buffer and then quantitation of Coomassie blue-stained proteins separated by SDS-PAGE was performed using a protein standard of known concentration.
The cDNA for human cyclin D1 was cloned by RT PCR using […] from MCF-7 cells. […] Bacmid DNA was used to transfect Sf9 insect cells to produce recombinant virus. Following plaque purification of the virus, the viral preparations were amplified until high titer stocks were acheived.
Lysates were prepared by lysis of Sf9 cells coinfected with cdk4 and cyclin D1 in 50 mM HEPES, pH 7.5, 10 mM MgCl2, 1 mM DTT, 0.1 mM phenylmethylsulfonyl fluoride, 5 μg/ml aprotinin, and 5 μg/ml leupeptin using a PARR bomb under 500 p.s.i nitrogen pressure for 5 min at 4° C. Insoluble material was sedimented at 10,000×g for 20 min at 4° C. Glycerol was added to the supernatant to 10% and stored at −80° C. in aliquots.
Pre-wet Millipore Multiscreen 96-well filter plates (0.65 μm Durapore filters) with 200 μl kinase buffer (50 mM HEPES, pH 7.5, 10 mM MgCl2, 1 mM EGTA). GST-Rb (0.5 μg) bound to glutathione-Sepharose beads is added in 50 μl per well and the solution removed by application of vacuum. […] Add 0.1 μg cdk4/cyclin D1 (insect cell lysate) to initiate assay. Incubate 30 min at 37° C. Terminate reaction by filtration on Millipore Vacuum Manifold. Wash four times with TNEN (20 mM Tris, pH 8.0, 100 mM Na Cl, 1 mM EDTA, 0.5% nonidet P-40). After drying the plates at room temperature, the filter plates were placed in adapter plates (Packard) and 40 μl of Microscint-O® (Packard) was added to each well. Top Seal A film was used to cover the plates before counting in a Top Count Scintillation Counter.

[6] = tested on: MDA-MB-435; assay: In vitro tumor cell proliferation, MDA-MB-435; type: cell-based; conditions: values given with an undefined *, read-out: In vitro Tumor Cell Proliferation (IC50, μM) Breast MDA-MB-435
Protocol: as §1, §2, §3

[7] = tested on: MDA-MB-231; assay: In vitro tumor cell proliferation, MDA-MB-231; type: cell-based, human; conditions: sulforhodamine B or CyQUANT assay, many values given with an undefined *, read-out: In vitro Tumor Cell Proliferation (IC50, μM) Breast MDA-MB-231
Protocol: as §1, §2, §3
MDA-MB-23 1 is a human breast adenocarcinoma, hormone-independent (HTB 26);

[8] = tested on: DU145; assay: In vitro tumor cell proliferation, DU145; type: cell-based, human; conditions: many values given with an undefined *, read-out: In vitro Tumor Cell Proliferation (IC50, μM) Prostate DU145
Protocol: as §1, §2, §3

[9] = tested on: A549; assay: In vitro tumor cell proliferation, A549; type: cell-based, human; conditions: many values given with an undefined *, read-out: In vitro Tumor Cell Proliferation (IC50, μM) Lung A549
Protocol: as §1, §2, §3

[10] = target: T2, cdk2/cyclin E (Homo sapiens, UniProt P24941); assay: Cyclin-Dependent Kinase 2 Assay (cdk2/cyclin E, GST-Rb substrate); type: biochemical; conditions: recombinant cdk2/cyclin E, 10 μM ATP, 30 min at 30° C., several values in a cell = separate determinations, read-out: CDK-2 Inhibition IC50
T2 construct: made in house; host or cells: insect cells (baculovirus co-infection)
Protocol: Substrate: GST-Rb as described above for cdk4/cyclin D1
Assay conditions for cdk2/cyclin E were identical to those for cdk4/cyclin D1 including the substrate. The concentration of recombinant cdk2/cyclin E in the assay was 0.1 μg per 100 μl assay. Incubation was for 30 min at 30° C.

[11] = Homo sapiens, MDA-MB-231, MDA-MB-231

| IC50 ([1]; Colo-205) | IC50 [5] | IC50 ([6]; MDA-MB-435) | IC50 ([7]; MDA-MB-231) | IC50 ([8]; DU145) | IC50 [10] [nM] | IC50 ([1]; Colo-205, trihydrochloride) | IC50 ([2]; DMS-114, trihydrochloride) | IC50 ([3]; HT-29, trihydrochloride) | IC50 ([4]; PC-3, trihydrochloride) | IC50 ([6]; MDA-MB-435, trihydrochloride) | IC50 ([7]; MDA-MB-231, trihydrochloride) | IC50 ([8]; DU145, trihydrochloride) | IC50 ([9]; A549, trihydrochloride) | Compound | also measured |
| --- | --- | --- | --- | --- | --- | --- | --- | --- | --- | --- | --- | --- | --- | --- | --- |
| 0.25 µM and 0.21 µM | 750 nM and 1400 nM | 0.35 µM and 0.36 µM | 0.29 µM and 0.32 µM | 0.29 µM and 0.23 µM | – | – | – | – | – | – | – | – | – | COc1cccc(CN2CCC(Nc3nc(N[C@H]4CC[C@H](N)CC4)nc4c3ncn4C3CCCC3)CC2)c1 [Example 41, 2-[Trans-(4-aminocyclohexyl)amino]-6-[4-(1-(3-methoxybenzyl))piperidinylamino]-9-cyclopentylpurine] | IC50 ([2]; DMS-114): 0.38 µM and 0.29 µM; IC50 ([3]; HT-29): 0.32 µM; IC50 ([4]; PC-3): 0.27 µM and 0.42 µM; IC50 ([9]; A549): 0.19 µM |
| – | 4600 nM and 10000 nM | – | – | – | 27100 | – | – | – | – | – | – | – | – | NC1CCC(Nc2nc(NC(c3ccc(Cl)cc3)C3CC3)c3ncn(C4CCCC4)c3n2)CC1 (racemic) [Example 24, (+/−)-2-[Trans-(4-aminocyclohexyl)amino]-6-[(α-cyclopropyl-4-chlorobenzyl)amino]-9-cyclopentylpurine dihydrochloride] | – |
| – | – | – | – | – | 497 | – | – | – | – | – | – | – | – | N[C@H]1CC[C@H](Nc2nc(NNc3c(Cl)cccc3Cl)c3ncn(C4CCCC4)c3n2)CC1 [Example 20, 2-[Trans-(4-aminocyclohexyl)amino]-6-[2,6-dichlorophenylhydrazino]-9-cyclopentylpurine dihydrochloride] | IC50 ([2]; Homo sapiens, DMS-114, DMS-114): 7.5 µM; IC50 ([3]; Homo sapiens, HT-29, HT-29): 7.6 µM; IC50 ([4]; Homo sapiens, PC-3, PC-3): 7.9 µM; IC50 ([6]; Homo sapiens, MDA-MB-435, MDA-MB-435): 11 µM; IC50 [7, 11]: 4.8 µM; IC50 ([8]; Homo sapiens, DU-145, DU145): 6.5 µM; IC50 ([9]; A549, dihydrochloride): 4.8 µM; IC50 ([9]; Homo sapiens, A549, A549): 5.6 µM |
| – | 1400 nM | – | – | – | 1000 | – | – | – | – | – | – | – | – | CCN(CC)CCCNc1nc(N[C@H]2CC[C@H](N)CC2)nc2c1ncn2C1CCCC1 [Example 18, 2-[Trans-(4-aminocyclohexyl)amino]-6-[(3-diethylamino)propylamino]-9-cyclopentylpurine dihydrochloride] | – |
| 8.6 µM | – | 11 µM | 6.6 µM | 6.7 µM | 140 | – | – | – | – | – | – | – | – | COc1cc(CNc2nc(NC3CCC(N)CC3)nc3c2ncn3C2CCCC2)cc(OC)c1OC (stereo not shown) [Example 147-ae] | IC50 ([1]; Homo sapiens, COLO 205, Colo-205): 11 µM; IC50 ([2]; Homo sapiens, DMS-114, DMS-114): 8.7 µM; IC50 ([3]; Homo sapiens, HT-29, HT-29): 10 µM; IC50 [7, 11]: 6.5 µM; IC50 ([8]; Homo sapiens, DU-145, DU145): 12 µM; IC50 ([9]; Homo sapiens, A549, A549): 11 µM |
| – | – | – | – | – | – | 0.31 µM and 0.25 µM | 0.67 µM and 0.36 µM | 0.4 µM and 0.34 µM | 0.36 µM and 0.45 µM | 0.5 µM and 0.49 µM | 0.41 µM and 0.38 µM | 0.31 µM and 0.29 µM | 0.3 µM | 2-[Trans-(4-aminocyclohexyl)amino]-6-[4-[1-(2,5-difluorobenzyl)]piperidinylamino-9-cyclopentylpurine trihydrochloride [Example 147-f] | IC50 ([5]; trihydrochloride): 1100 nM and 2100 nM |
| – | – | – | – | – | – | 0.24 µM and 0.27 µM | 0.39 µM and 0.26 µM | 0.33 µM | 0.23 µM and 0.41 µM | 0.3 µM and 0.45 µM | 0.3 µM and 0.34 µM | 0.23 µM | 0.17 µM and 0.18 µM | Cc1cccc(CN2CCC(Nc3nc(N[C@H]4CC[C@H](N)CC4)nc4c3ncn4C3CCCC3)CC2)c1 [Example 147-i, 2-[Trans-(4-aminocyclohexyl)amino]-6-[4-[1-(3-methylbenzyl)]piperidinylamino]-9-cyclopentylpurine trihydrochloride] | – |
| 0.28 µM and 0.17 µM | – | 0.23 µM and 0.35 µM | 0.18 µM | 0.28 µM and 0.27 µM | – | – | – | – | – | – | – | – | – | COc1ccc(CN2CCC(Nc3nc(N[C@H]4CC[C@H](N)CC4)nc4c3ncn4C3CCCC3)CC2)cc1 [Example 39, 2-[Trans-(4-aminocyclohexyl)amino]-6-[4-(1-(4-methoxybenzyl))piperidinylamino]-9-cyclopentylpurine] | IC50 ([2]; DMS-114): 0.32 µM and 0.22 µM; IC50 ([3]; HT-29): 0.32 µM and 0.22 µM; IC50 ([4]; PC-3): 0.28 µM and 0.36 µM; IC50 ([9]; A549): 0.17 µM |
| – | – | – | – | – | – | 0.17 µM and 0.19 µM | 0.4 µM and 0.21 µM | 0.32 µM and 0.38 µM | 0.33 µM and 0.4 µM | 0.36 µM and 0.33 µM | 0.19 µM and 0.25 µM | 0.29 µM and 0.32 µM | 0.18 µM and 0.19 µM | COc1ccccc1CN1CCC(Nc2nc(N[C@H]3CC[C@H](N)CC3)nc3c2ncn3C2CCCC2)CC1 [Example 147-q, 2-[Trans-(4-aminocyclohexyl)amino]-6-[4-1-(2-methoxybenzyl)]piperidinylamino-9-cyclopentylpurine trihydrochloride] | IC50 ([5]; trihydrochloride): 690 nM and 1300 nM |
